Data set [1] has as its system HXB2-strain of HIV in MT4 cells. Kind of data set: Antiviral assay: protection of HIV-infected MT4 cells from cell death (MTT). The format is cell-based. The conditions noted are these: read-out: Antiviral Assay IC50. How it is done:
Antiviral Assay Method Anti-HIV antiviral activity was assessed using an adaptation of the method of Pawls et al. (J. Virol Methods 1988 20:309-321). The method is based on the ability of compounds to protect HIV-infected T lymphoblastoid cells (MT4 cells) from cell-death mediated by the infection. The endpoint of the assay was calculated as the concentration of compound at which the cell viability of the culture was preserved by 50% (‘50% inhibitory concentration’, IC50). The cell viability of a culture was determined by the uptake of soluble, yellow 3-[4,5-dimethylthiazol-2-yl]-2,5-diphenyltetrazolium bromide (MTT) and its reduction to a purple insoluble formazan salt. After solubilization, spectrophotometric methods were employed to measure the amount of formazan product. MT4 cells were prepared to be in logarithmic-phase growth and a total of 2×10^6 cells infected with the HXB2-strain of HIV at a multiplicity of 0.0001 infectious units of virus per cell in a total volume of between 200-500 microliters. […] When the formazan deposit was fully solubilized by further mixing, the absorbance (OD) of the cultures was measured at 540 nm and 690 nm wavelength (690 nm readings were used as blanks for artifacts between wells). The percent protection for each treated culture was then calculated from the equation: [formula] […]

In data set [2] the target is HIV-1 Reverse Transcriptase (Human immunodeficiency virus type 1 group M subtype B, UniProt P03366). Briefly: HIV-1 Reverse Transcriptase Assay (RNA-dependent DNA polymerase activity, SPA). The class given is biochemical. The conditions noted are these: HIV-RT enzyme 1-3 nM, 30° C. for 30 min, 10% DMSO. How it is done:
HIV-1 Reverse Transcriptase Assay
RNA-dependent DNA polymerase activity was measured using a biotinylated primer oligonucleotide and tritiated dNTP substrate. Newly synthesized DNA was quantified by capturing the biotinylated primer molecules on streptavidin coated Scintillation Proximity Assay (SPA) beads (Amersham). The sequences of the polymerase assay substrate were: 18nt DNA primer, 5′-Biotin/GTC CCT GTT CGG GCG CCA-3′; 47nt RNA template, 5′-GGGUCUCUCUGGUUAGACCACUCUAGCAGUGGCGCCCGAACAGGGAC-3′. The biotinylated DNA primer was obtained from the Integrated DNA Technologies Inc. and the RNA template was synthesized by Dharmacon. The DNA polymerase assay (final volume 50 μl) contained 32 nM biotinylated DNA primer, 64 nM RNA substrate, dGTP, dCTP, dTTP (each at 5 μM), 103 nM [^3H]-dATP (specific activity=[…]), in 45 mM Tris-HCl, pH 8.0, 45 mM NaCl, 2.7 mM Mg(CH3COO)2, 0.045% Triton X-100 w/v, 0.9 mM EDTA. The reactions contained 5 ul of serial compound dilutions in 100% DMSO for IC50 determination and the final concentrations of DMSO were 10%. Reactions were initiated by the addition of 30 μl of the HIV-RT enzyme (final concentrations of 1-3 nM). Protein concentrations were adjusted to provide linear product formation for at least 30 min of incubation. […] The beads were left to settle overnight and the SPA signals were counted in a 96-well top counter-NXT (Packard). […]

Usually melting point stands for the temperature, or range, at which the solid turns liquid. What is called IC50 is the concentration that gives 50% inhibition.

Counter-ions that a name gives are not always drawn. Like-named read-outs stand apart in the source and are kept apart here.

For the compound `N#Cc1cc(Cl)cc(C(=O)c2cc(Cl)ccc2OCc2n[nH]c3ncccc23)c1` [Compound I-2, 3-Chloro-5-[5-chloro-2-(1H-pyrazolo[3,4-b]pyridin-3-ylmethoxy)-benzoyl]-benzonitrile], the melting point was 194.3 to 195.9 °C. For the same compound, the IC50 in data set [1] (Human immunodeficiency virus 1, 120 h, MT4 cells infected with HXB2-strain of HIV, 5 days, MTT viability) turned out to be 3.7 nM. The compound also registered an IC50 in data set [2] of 24.4 nM.
`N#Cc1cc(Cl)cc(Oc2c(Cl)ccc(OCc3n[nH]c4ncccc34)c2F)c1` [Compound I-3, 3-Chloro-5-[6-chloro-2-fluoro-3-(1H-pyrazolo[3,4-b]pyridin-3-ylmethoxy)-phenoxy]-benzonitrile, trifluoroacetate salt]: the IC50 in data set [1] (Human immunodeficiency virus 1, HXB2, MT4, 120 h) was 8 nM; in data set [2] it was 11 nM.
`N#Cc1cc(Cl)cc(C(=O)c2c(CNc3n[nH]c4ncccc34)ccc(Br)c2F)c1` [Compound I-9] registered a melting point of 214 to 215 °C.

For the origin of these results see US20080293664A1, “Non-nucleoside reverse transcriptase inhibitors” (Roche Palo Alto LLC, priority 2007, published 2008).
